Data reported in US10239878B2, “Macrocyclic ligands with pendant chelating moieties and complexes thereof” (LUMIPHORE, INC., priority 2016, dated 2019).

Assay: Europium titration experiments for determining extinction coefficients
Format: physicochemical
Protocol: In order to determine accurate extinction coefficients for 16 and 16⋅Eu, titration experiments using europium chloride as the titrant were performed. Europium chloride hexahydrate (13.22 mg, 0.03608 mmol) was dissolved into 5 mM citrate buffer (pH=4) using a 100 mL volumetric flask to give a 0.3608 mM europium chloride solution, which was then titrated into a 0.5 mL solution of 16 in TBS buffer (Tris-buffered saline, 50 mM Tris, 150 mM NaCl, pH=7.6) using 5 μL aliquots. The UV-vis spectra were adjusted for the increase in solvent volume due to each injection. The results of the UV-vis titration are plotted in FIG. 3.
The volume of europium chloride corresponds to 16.70 nmol of europium, meaning the starting concentration of ligand 16 was 33.40 μM. […] These absorbance and concentration values yield extinction coefficients of 13,600 M^−1 cm^−1 and 14,300 M^−1 cm^−1 for the ligand 16 and the complex 16⋅Eu respectively.
In order to determine accurate extinction coefficients for 43 and 43⋅Eu, titration experiments using europium chloride as the titrant were performed. Europium chloride hexahydrate (47.58 mg, 0.1299 mmol) was dissolved into 50 mM citrate buffer (pH=4) using a 10 mL volumetric flask to give a 12.99 mM europium chloride solution, which was then transferred to a 100 mL volumetric flask and diluted 1:10 with water. The resulting 1.299 mM europium chloride solution (in 5 mM citrate buffer) was then titrated into a 1 mL solution of 43 in TBS buffer using 5 μL aliquots. The UV-vis spectra were adjusted for the increase in solvent volume due to each injection. The results of the UV-vis titration are plotted in FIG. 4.
The volume of europium chloride corresponds to 47.46 nmol of europium, meaning the starting concentration of ligand 43 was 47.46 μM. […] These absorbance and concentration values yield extinction coefficients of 13,000 M^−1 cm^−1 and 12,800 M^−1 cm^−1 for the ligand and complex respectively.
Titration of ligand 43 was also performed by luminescence (FIG. 5), monitoring the europium signal at 612 nm upon photoexcitation of the solution at 340 nm. The ligand solution used for the UV-vis titration of 43 mentioned above was first diluted 1:10 in TBS buffer. Similarly, the 1.299 mM stock europium solution was separately diluted 1:10 with water. […] The 32.99 μL equivalence point gives extinction coefficients of 14,400 M^−1 cm^−1 at 383 nm and 14,200 M^−1 cm^−1 at 357 nm for 43 and 43⋅Eu respectively. Averaging the values from both UV-vis and luminescence titration experiments of 43 yields extinction coefficients of 13,700 M^−1 cm^−1 at 383 nm and 13,500 M^−1 cm^−1 at 357 nm for 43 and 43⋅Eu respectively.

extinction coefficient (UV-vis titration with europium chloride, TBS buffer pH 7.6, at lambda max): 12,800 M^−1 cm^−1 | lambda max (UV-vis titration, TBS buffer): 357 nm | extinction coefficient, average of UV-vis and luminescence titration (at 383 nm (ligand) / 357 nm (complex)): 13,500 M^−1 cm^−1 | ε at λmax (by europium titration, TBS buffer pH 7.6): 13,500 M^−1cm^−1 | extinction coefficient (luminescence titration (612 nm signal, 340 nm photoexcitation), at 383 nm (ligand) / 357 nm (complex)): 14,200 M^−1 cm^−1
SMILES: NCCOCCNC(=O)C1CCCN(C(=O)c2cccc(=O)n2[O-])CCCNC(=O)c2ccc(n([O-])c2=O)C(=O)NC2COCC2NC(=O)c2ccc(c(=O)n2[O-])C(=O)NCCCN1C(=O)c1cccc(=O)n1[O-].[Eu+3] (mixture of isomers) [43⋅Eu]
